{
  "source": "patent US20030129629A1",
  "about": "“Methods and compositions for the identification, assessment, prevention, and therapy of human cancers” (Millennium Pharmaceuticals, Inc., priority 2000, published 2003)",
  "tested_on": "60 cancer cell lines (NCI 60 cancer cell line series)",
  "assay": "NCI-DTP in vitro cancer screen, sulforhodamine B (SRB) growth inhibition, 48 hour exposure",
  "type": "cell-based, human",
  "method": "Cancer Cell Line Preparation. Sixty cancer cell lines were obtained from the National Cancer Institute Developmental Therapeutics Program (NCI-DTP). Procedures for growing cells and testing compounds have been described previously (Scudiero et al., Cancer Res. 1988, 48:4827-4833; Stinson et al., Anticancer Res.; Myers et al., Electrophoresis 1997, 18:647-653). Cells are plated on day 0 at a density individualized for each cell line so that they will generally be sub-confluent at the end of the assay period. On day 1, a compound is added in the format for a duplicate-well, 5-dose, ten-fold interval dose response study.\nNo-drug, no-cell and no-growth controls are included. On day 3 the cells are processed for staining with sulforhodamine B (SRB), which reflects the amount of cell mass present at the end of a 48 hour exposure to the test agent. From dose response curves based on the SRB data, various parameters can be determined. […] More precisely, the quantity used in the calculation to be described is the potency measure −log{GI50}.\nActivity database (A). […] This subset of compounds was selected from the larger 23,000 compound database available from the DTP. The compounds were selected on the basis of their known mechanism of action and chemical structure. The average potency −log{GI50} was extracted from the comma-delimited text files available through the Web at http://www.nci.nih.gov/intra/lmp/jnwbio.html. Subsequently, these −log{GI50} values were inspected manually and classified as indicating either Low, Medium or High sensitivity to each compound.",
  "note": "Several values for one entry are separate records, joined by “and”; a condition that tells them apart may be missing. Equal values may be shown once. Read-outs that look alike come from different tables or passages of the source.",
  "data": [
    {"smiles": "Sc1ncnc2nc[nH]c12", "note": "[6-mercaptopurine]", "values": [
      {"measurement": "classification of cell line as Low(1), Medium(2), High(3) sensitivity to compound", "setting": "Breast BT-549 CL5013", "result": 1},
      {"measurement": "classification of cell line as Low(1), Medium(2), High(3) sensitivity to compound", "setting": "Breast HS-578T CL5006", "result": 1},
      {"measurement": "classification of cell line as Low(1), Medium(2), High(3) sensitivity to compound", "setting": "Breast MCF7(I) CL5001", "result": 2},
      {"measurement": "classification of cell line as Low(1), Medium(2), High(3) sensitivity to compound", "setting": "Breast MCF7/ADRr CL5002", "result": 2},
      {"measurement": "classification of cell line as Low(1), Medium(2), High(3) sensitivity to compound", "setting": "Breast MDA-MB-231 CL5005", "result": 1},
      {"measurement": "classification of cell line as Low(1), Medium(2), High(3) sensitivity to compound", "setting": "Breast MDA-MB-435 CL5011", "result": 2},
      {"measurement": "classification of cell line as Low(1), Medium(2), High(3) sensitivity to compound", "setting": "Breast MDA-N CL5012", "result": 2},
      {"measurement": "classification of cell line as Low(1), Medium(2), High(3) sensitivity to compound", "setting": "Breast T-47D CL5014", "result": 2},
      {"measurement": "classification of cell line as Low(1), Medium(2), High(3) sensitivity to compound", "setting": "CNS SF-268 CL12014", "result": 2},
      {"measurement": "classification of cell line as Low(1), Medium(2), High(3) sensitivity to compound", "setting": "CNS SF-295 CL12015", "result": 2},
      {"measurement": "classification of cell line as Low(1), Medium(2), High(3) sensitivity to compound", "setting": "CNS SF-539 CL12016", "result": 2},
      {"measurement": "classification of cell line as Low(1), Medium(2), High(3) sensitivity to compound", "setting": "CNS SNB-19 CL12002", "result": 1},
      {"measurement": "classification of cell line as Low(1), Medium(2), High(3) sensitivity to compound", "setting": "CNS SNB-75(I) CL12005", "result": 2},
      {"measurement": "classification of cell line as Low(1), Medium(2), High(3) sensitivity to compound", "setting": "CNS U251(I) CL12009", "result": 2},
      {"measurement": "classification of cell line as Low(1), Medium(2), High(3) sensitivity to compound", "setting": "Colon COLO-250 CL4010", "result": 2},
      {"measurement": "classification of cell line as Low(1), Medium(2), High(3) sensitivity to compound", "setting": "Colon HCC-2998 CL4002", "result": 2},
      {"measurement": "classification of cell line as Low(1), Medium(2), High(3) sensitivity to compound", "setting": "Colon HCT-15 CL4015", "result": 2},
      {"measurement": "classification of cell line as Low(1), Medium(2), High(3) sensitivity to compound", "setting": "Colon HCT-116 CL4003", "result": 2},
      {"measurement": "classification of cell line as Low(1), Medium(2), High(3) sensitivity to compound", "setting": "Colon HT29(I) CL4001", "result": 2},
      {"measurement": "classification of cell line as Low(1), Medium(2), High(3) sensitivity to compound", "setting": "Colon KM12 CL4017", "result": 2},
      {"measurement": "classification of cell line as Low(1), Medium(2), High(3) sensitivity to compound", "setting": "Colon SW-620 CL4009", "result": 2},
      {"measurement": "classification of cell line as Low(1), Medium(2), High(3) sensitivity to compound", "setting": "Leukemia CCRF-CEM(I) CL7003", "result": 3},
      {"measurement": "classification of cell line as Low(1), Medium(2), High(3) sensitivity to compound", "setting": "Leukemia HL-60(I) CL7008", "result": 2},
      {"measurement": "classification of cell line as Low(1), Medium(2), High(3) sensitivity to compound", "setting": "Leukemia K562(I) CL7005", "result": 3},
      {"measurement": "classification of cell line as Low(1), Medium(2), High(3) sensitivity to compound", "setting": "Leukemia MOLT-4 CL7006", "result": 2},
      {"measurement": "classification of cell line as Low(1), Medium(2), High(3) sensitivity to compound", "setting": "Leukemia RPMI-8226(I) CL7010", "result": 2},
      {"measurement": "classification of cell line as Low(1), Medium(2), High(3) sensitivity to compound", "setting": "Leukemia SR CL7019", "result": 3},
      {"measurement": "classification of cell line as Low(1), Medium(2), High(3) sensitivity to compound", "setting": "Melanoma LOX IMVI CL10001", "result": 3},
      {"measurement": "classification of cell line as Low(1), Medium(2), High(3) sensitivity to compound", "setting": "Melanoma M14 CL10014", "result": 3},
      {"measurement": "classification of cell line as Low(1), Medium(2), High(3) sensitivity to compound", "setting": "Melanoma MALME-3M CL10002", "result": 2},
      {"measurement": "classification of cell line as Low(1), Medium(2), High(3) sensitivity to compound", "setting": "Melanoma SK-MEL-2 CL10005", "result": 2},
      {"measurement": "classification of cell line as Low(1), Medium(2), High(3) sensitivity to compound", "setting": "Melanoma SK-MEL-5 CL10007", "result": 2},
      {"measurement": "classification of cell line as Low(1), Medium(2), High(3) sensitivity to compound", "setting": "Melanoma SK-MEL-28 CL10008", "result": 1},
      {"measurement": "classification of cell line as Low(1), Medium(2), High(3) sensitivity to compound", "setting": "Melanoma UACC-62 CL10020", "result": 2},
      {"measurement": "classification of cell line as Low(1), Medium(2), High(3) sensitivity to compound", "setting": "Melanoma UACC-257 CL10021", "result": 1},
      {"measurement": "classification of cell line as Low(1), Medium(2), High(3) sensitivity to compound", "setting": "NSCLC A549/ATCC CL1004", "result": 1},
      {"measurement": "classification of cell line as Low(1), Medium(2), High(3) sensitivity to compound", "setting": "NSCLC EKVX CL1008", "result": 1},
      {"measurement": "classification of cell line as Low(1), Medium(2), High(3) sensitivity to compound", "setting": "NSCLC HOP-62 CL1026", "result": 2},
      {"measurement": "classification of cell line as Low(1), Medium(2), High(3) sensitivity to compound", "setting": "NSCLC HOP-92 CL1029", "result": 2},
      {"measurement": "sensitivity classification Low(1)/Medium(2)/High(3)", "setting": "NSCLC NCI-H23(I) CL1001", "result": 2},
      {"measurement": "classification of cell line as Low(1), Medium(2), High(3) sensitivity to compound", "setting": "NSCLC NCI-H226 CL1013", "result": 1},
      {"measurement": "sensitivity classification Low(1)/Medium(2)/High(3)", "setting": "NSCLC NCI-H332M CL1017", "result": 2},
      {"measurement": "sensitivity classification Low(1)/Medium(2)/High(3)", "setting": "NSCLC NCI-H460 CL1021", "result": 2},
      {"measurement": "sensitivity classification Low(1)/Medium(2)/High(3)", "setting": "NSCLC NCI-H522 CL1003", "result": 2},
      {"measurement": "sensitivity classification Low(1)/Medium(2)/High(3)", "setting": "Ovarian IGROV1 CL6010", "result": 2},
      {"measurement": "sensitivity classification Low(1)/Medium(2)/High(3)", "setting": "Ovarian OVCAR-3 CL6001", "result": 3},
      {"measurement": "sensitivity classification Low(1)/Medium(2)/High(3)", "setting": "Ovarian OVCAR-4 CL6002", "result": 2},
      {"measurement": "sensitivity classification Low(1)/Medium(2)/High(3)", "setting": "Ovarian OVCAR-5 CL6003", "result": 2},
      {"measurement": "sensitivity classification Low(1)/Medium(2)/High(3)", "setting": "Ovarian OVCAR-8 CL6005", "result": 2},
      {"measurement": "sensitivity classification Low(1)/Medium(2)/High(3)", "setting": "Ovarian SK-OV-3 CL6011", "result": 3},
      {"measurement": "sensitivity classification Low(1)/Medium(2)/High(3)", "setting": "Prostate DU-145 CL11003", "result": 2},
      {"measurement": "sensitivity classification Low(1)/Medium(2)/High(3)", "setting": "Prostate PC-3(I) CL11001", "result": 2},
      {"measurement": "sensitivity classification Low(1)/Medium(2)/High(3)", "setting": "Renal 786-0 CL9018", "result": 2},
      {"measurement": "sensitivity classification Low(1)/Medium(2)/High(3)", "setting": "Renal A498 CL9013", "result": 1},
      {"measurement": "sensitivity classification Low(1)/Medium(2)/High(3)", "setting": "Renal ACHN CL9023", "result": 2},
      {"measurement": "sensitivity classification Low(1)/Medium(2)/High(3)", "setting": "Renal CAKI-1 CL9015", "result": 2},
      {"measurement": "sensitivity classification Low(1)/Medium(2)/High(3)", "setting": "Renal RXF-393 CL9016", "result": 1},
      {"measurement": "sensitivity classification Low(1)/Medium(2)/High(3)", "setting": "Renal SN12C CL9008", "result": 1},
      {"measurement": "sensitivity classification Low(1)/Medium(2)/High(3)", "setting": "Renal TK10 CL9024", "result": 2},
      {"measurement": "sensitivity classification Low(1)/Medium(2)/High(3)", "setting": "Renal UO-31 CL9004", "result": 2}
    ]},
    {"smiles": "Nc1ccn([C@@H]2O[C@H](CO)[C@@H](O)[C@@H]2O)c(=O)n1", "note": "[AraC]", "values": [
      {"measurement": "classification of cell line as Low(1), Medium(2), High(3) sensitivity to compound", "result": "3 and 2 and 1"},
      {"measurement": "sensitivity classification Low(1)/Medium(2)/High(3)", "result": "3 and 2 and 1"}
    ]}
  ]
}
